Laboratory results taken from ChEMBL document CHEMBL2424622, “Development of amino-pyrimidine inhibitors of c-Jun N-terminal kinase (JNK): kinase profiling guided optimization of a 1,2,3-benzotriazole lead” (Bioorg Med Chem Lett, 2013).

Columns and labels:
[1] = molecular target: T1, Serine/threonine-protein kinase D1 (Homo sapiens) (UniProt Q15139); test: Competitive binding affinity to PRKD1 (unknown origin) at 10 uM in presence of ATP relative to control
T1 sequence (whole entry): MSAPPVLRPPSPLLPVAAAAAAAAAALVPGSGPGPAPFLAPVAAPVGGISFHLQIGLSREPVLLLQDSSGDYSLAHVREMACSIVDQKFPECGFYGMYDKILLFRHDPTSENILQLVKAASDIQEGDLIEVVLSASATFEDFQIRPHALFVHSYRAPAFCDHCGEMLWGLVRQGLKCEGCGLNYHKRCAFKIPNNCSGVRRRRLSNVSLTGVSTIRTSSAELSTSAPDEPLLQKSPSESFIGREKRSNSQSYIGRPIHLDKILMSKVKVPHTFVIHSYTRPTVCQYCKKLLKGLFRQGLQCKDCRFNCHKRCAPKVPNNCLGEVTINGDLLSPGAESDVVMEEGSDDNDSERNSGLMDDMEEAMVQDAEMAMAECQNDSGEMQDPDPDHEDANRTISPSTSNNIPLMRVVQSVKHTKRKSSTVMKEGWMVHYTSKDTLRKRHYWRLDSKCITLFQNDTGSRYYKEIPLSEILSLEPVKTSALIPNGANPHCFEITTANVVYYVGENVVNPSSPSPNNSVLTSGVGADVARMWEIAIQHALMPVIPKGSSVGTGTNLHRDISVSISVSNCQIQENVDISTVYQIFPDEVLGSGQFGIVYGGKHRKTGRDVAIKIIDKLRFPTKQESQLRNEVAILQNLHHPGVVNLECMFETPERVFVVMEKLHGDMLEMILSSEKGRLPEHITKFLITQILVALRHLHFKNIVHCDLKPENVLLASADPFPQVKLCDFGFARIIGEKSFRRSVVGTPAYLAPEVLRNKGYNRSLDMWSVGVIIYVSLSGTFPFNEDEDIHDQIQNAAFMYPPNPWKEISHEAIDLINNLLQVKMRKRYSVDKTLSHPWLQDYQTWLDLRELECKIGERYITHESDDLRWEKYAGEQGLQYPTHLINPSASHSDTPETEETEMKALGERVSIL

[2] = molecular target: Activin receptor type-1-like (Homo sapiens) (UniProt P37023); test: Competitive binding affinity to ACVRL1 (unknown origin) at 10 uM in presence of ATP relative to control
[3] = molecular target: T2, Serine/threonine-protein kinase 3 (Homo sapiens) (UniProt Q13188); test: Competitive binding affinity to MST2 (unknown origin) at 10 uM in presence of ATP relative to control
T2 sequence (whole entry): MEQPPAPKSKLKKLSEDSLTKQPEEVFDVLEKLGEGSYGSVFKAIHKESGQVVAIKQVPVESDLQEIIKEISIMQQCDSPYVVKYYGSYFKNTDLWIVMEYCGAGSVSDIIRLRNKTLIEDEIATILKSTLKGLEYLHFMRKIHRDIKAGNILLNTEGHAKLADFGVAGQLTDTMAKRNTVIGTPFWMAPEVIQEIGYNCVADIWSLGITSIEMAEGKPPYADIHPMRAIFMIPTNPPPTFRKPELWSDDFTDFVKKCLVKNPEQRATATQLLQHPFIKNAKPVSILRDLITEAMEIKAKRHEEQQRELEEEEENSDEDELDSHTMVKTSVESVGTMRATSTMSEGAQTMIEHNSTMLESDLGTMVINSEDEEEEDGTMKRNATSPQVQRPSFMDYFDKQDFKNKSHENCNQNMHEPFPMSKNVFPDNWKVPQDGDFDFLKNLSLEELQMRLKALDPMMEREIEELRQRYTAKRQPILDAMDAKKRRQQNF

[4] = molecular target: T3, Tyrosine-protein kinase JAK3 (Homo sapiens) (UniProt P52333); test: Competitive binding affinity to JAK3 kinase domain 2 (unknown origin) at 10 uM in presence of ATP relative to control
T3 sequence (whole entry): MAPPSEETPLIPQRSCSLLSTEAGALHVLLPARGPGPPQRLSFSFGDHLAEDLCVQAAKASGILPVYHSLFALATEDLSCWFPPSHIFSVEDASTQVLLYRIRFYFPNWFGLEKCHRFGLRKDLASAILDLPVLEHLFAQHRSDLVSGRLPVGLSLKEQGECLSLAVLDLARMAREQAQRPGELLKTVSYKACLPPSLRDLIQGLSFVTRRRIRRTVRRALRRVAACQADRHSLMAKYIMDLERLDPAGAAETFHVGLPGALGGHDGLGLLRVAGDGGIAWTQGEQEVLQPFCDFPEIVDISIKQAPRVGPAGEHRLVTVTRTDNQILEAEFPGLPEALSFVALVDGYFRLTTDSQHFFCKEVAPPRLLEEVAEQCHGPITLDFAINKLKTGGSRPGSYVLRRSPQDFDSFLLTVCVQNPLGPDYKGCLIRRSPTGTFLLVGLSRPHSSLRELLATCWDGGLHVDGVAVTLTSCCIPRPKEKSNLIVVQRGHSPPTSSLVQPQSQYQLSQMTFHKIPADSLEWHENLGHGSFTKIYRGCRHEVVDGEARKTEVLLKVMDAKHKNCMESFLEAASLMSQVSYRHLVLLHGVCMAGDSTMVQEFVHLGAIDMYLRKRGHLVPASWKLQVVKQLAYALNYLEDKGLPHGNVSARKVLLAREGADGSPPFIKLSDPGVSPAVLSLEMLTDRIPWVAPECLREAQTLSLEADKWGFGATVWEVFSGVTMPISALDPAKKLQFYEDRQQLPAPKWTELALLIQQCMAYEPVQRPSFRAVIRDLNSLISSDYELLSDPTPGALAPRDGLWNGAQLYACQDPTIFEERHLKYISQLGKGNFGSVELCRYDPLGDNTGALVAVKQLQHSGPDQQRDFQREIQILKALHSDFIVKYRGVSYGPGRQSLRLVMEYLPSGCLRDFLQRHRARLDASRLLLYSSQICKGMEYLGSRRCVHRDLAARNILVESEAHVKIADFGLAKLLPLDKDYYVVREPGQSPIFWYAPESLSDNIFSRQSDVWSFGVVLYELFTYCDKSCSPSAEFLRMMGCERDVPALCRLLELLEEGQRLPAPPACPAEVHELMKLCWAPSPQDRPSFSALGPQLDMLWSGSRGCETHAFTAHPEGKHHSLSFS

[5] = molecular target: Ribosomal protein S6 kinase alpha-2 (Homo sapiens) (UniProt Q15349); test: Competitive binding affinity to RPS6KA2 kinase domain 2 (unknown origin) at 10 uM in presence of ATP relative to control
Sequence of Ribosomal protein S6 kinase alpha-2 (Homo sapiens) (Q15349 whole entry, the tested form may be a part): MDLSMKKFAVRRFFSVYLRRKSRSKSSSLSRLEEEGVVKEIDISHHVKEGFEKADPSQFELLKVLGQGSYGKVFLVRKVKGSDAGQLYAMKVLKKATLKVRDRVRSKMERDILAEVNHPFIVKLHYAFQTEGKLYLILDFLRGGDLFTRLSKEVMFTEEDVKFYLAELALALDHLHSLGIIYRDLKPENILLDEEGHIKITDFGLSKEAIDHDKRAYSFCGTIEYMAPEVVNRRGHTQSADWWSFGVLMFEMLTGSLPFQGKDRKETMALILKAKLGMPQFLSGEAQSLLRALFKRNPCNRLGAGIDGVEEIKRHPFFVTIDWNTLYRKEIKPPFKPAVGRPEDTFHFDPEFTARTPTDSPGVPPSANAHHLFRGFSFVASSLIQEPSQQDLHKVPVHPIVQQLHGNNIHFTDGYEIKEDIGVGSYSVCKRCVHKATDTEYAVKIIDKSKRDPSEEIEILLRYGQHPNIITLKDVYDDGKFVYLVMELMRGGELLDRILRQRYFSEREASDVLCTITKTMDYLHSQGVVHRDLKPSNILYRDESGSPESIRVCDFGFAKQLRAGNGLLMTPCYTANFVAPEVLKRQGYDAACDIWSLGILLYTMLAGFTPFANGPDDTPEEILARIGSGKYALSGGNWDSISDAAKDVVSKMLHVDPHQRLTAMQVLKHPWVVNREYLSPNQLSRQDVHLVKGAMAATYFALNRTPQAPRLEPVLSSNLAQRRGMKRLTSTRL

Sequence of Activin receptor type-1-like (Homo sapiens) (P37023 whole entry): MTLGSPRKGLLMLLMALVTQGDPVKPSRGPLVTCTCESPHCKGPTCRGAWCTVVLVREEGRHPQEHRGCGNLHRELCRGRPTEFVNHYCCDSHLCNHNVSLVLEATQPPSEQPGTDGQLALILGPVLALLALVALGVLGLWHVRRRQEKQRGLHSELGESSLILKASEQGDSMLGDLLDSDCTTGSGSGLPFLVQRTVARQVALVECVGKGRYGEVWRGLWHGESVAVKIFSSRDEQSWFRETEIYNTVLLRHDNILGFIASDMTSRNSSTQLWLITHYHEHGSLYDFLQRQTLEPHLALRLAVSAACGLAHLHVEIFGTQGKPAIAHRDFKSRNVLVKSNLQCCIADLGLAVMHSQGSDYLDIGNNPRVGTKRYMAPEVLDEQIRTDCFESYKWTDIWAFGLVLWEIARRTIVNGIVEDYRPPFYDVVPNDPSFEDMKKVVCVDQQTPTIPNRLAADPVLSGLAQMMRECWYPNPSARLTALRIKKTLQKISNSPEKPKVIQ

| SMILES | inhibition [1] [%] | inhibition [2] [%] | inhibition [3] [%] | inhibition [4] [%] | inhibition [5] [%] |
| --- | --- | --- | --- | --- | --- |
| O[C@H]1CC[C@H](Nc2nccc(-n3ccc4ccccc43)n2)CC1 | 95 | < 50 | < 50 | < 50 | < 50 |
| O[C@H]1CC[C@H](Nc2nccc(-n3nnc4ccccc43)n2)CC1 | 98 | < 50 | 95 | < 50 | 87 |
| O[C@H]1CC[C@H](Nc2nccc(-n3ncc4ccccc43)n2)CC1 | 96 | < 50 | 81 | < 50 | < 50 |
| O[C@H]1CC[C@H](Nc2nccc(-c3n[nH]c4ccccc34)n2)CC1 | – | < 50 | – | – | – |
